Tested on: hepatocytes
Assay: Seq-Well scRNA-Seq of hepatocytes after APAP overdose (signature scores, DEG vs untreated)
Type: in vivo, mouse
Details: A6 vs UT

In the case of `CC(=O)Nc1ccc(O)cc1` [APAP, acetaminophen], the “Gstz1 pct.1” value was 0.73, the “Gtf2a2 A6logFC” value was 0.2792 and the “Gtf2a2 avg_logFC” value was 0.2792. The “Gtf2a2 pct.1” value was 0.379, the “Gtpbp4 avg_logFC” value was 0.4822 and the “Gtpbp4 pct.1” value was 0.477. For the same compound, the “Gulo avg_logFC” value was −0.8017, the “H2-Ab1 avg_logFC” value was 0.461 and the “H2-Ab1 pct.1” value was 0.158. For the same compound, the “H2-D1 A6logFC” value was 0.2865, the “H2-D1 avg_logFC” value was 0.2865 and the “H2-D1 pct.1” value was 0.766. The “H2-Eb1 avg_logFC” value was 0.3279, the “H2-Eb1 pct.1” value was 0.105 and the “H3f3b avg_logFC” value was 0.7029. The “H6pd avg_logFC” value was 0.3437, the “H6pd pct.1” value was 0.623 and the “Haao avg_logFC” value was −0.5912. The “Hacl1 avg_logFC” value was −0.7069, the “Hagh avg_logFC” value was −0.674 and the “Hba-a1 avg_logFC” value was 0.735. For the same compound, the “Hba-a2 avg_logFC” value was 0.5535, the “Hbb-bs avg_logFC” value was 2.862 and the “Hbb-bt avg_logFC” value was 1.43. For the same compound, the “Hdac11 avg_logFC” value was −0.3368, the “Hdac11 pct.1” value was 0.1 and the “Hdlbp avg_logFC” value was 0.3457. For the same compound, the “Hdlbp pct.1” value was 0.737, the “Heatr1 avg_logFC” value was 0.406 and the “Heatr1 pct.1” value was 0.291. For the same compound, the “Hebp1 avg_logFC” value was −0.6354, the “Hectd1 A6logFC” value was 0.308 and the “Hectd1 avg_logFC” value was 0.308. The “Hectd1 pct.1” value was 0.547, the “Herc1 A6logFC” value was 0.2562 and the “Herc1 avg_logFC” value was 0.2562. The “Herc1 pct.1” value was 0.246, the “Herc4 A6logFC” value was 0.2675 and the “Herc4 avg_logFC” value was 0.2675. For the same compound, the “Herc4 pct.1” value was 0.332, the “Herpud1 avg_logFC” value was −0.4976 and the “Herpud1 pct.1” value was 0.535. The “Hes6 avg_logFC” value was −0.5613, the “Hgd avg_logFC” value was −0.7586 and the “Hibadh avg_logFC” value was −0.4994. For the same compound, the “Hibadh pct.1” value was 0.542, the “Hic2 avg_logFC” value was 0.2898 and the “Hic2 pct.1” value was 0.15. The “Hif1a avg_logFC” value was 0.5169, the “Hilpda avg_logFC” value was 0.7786 and the “Hint1 avg_logFC” value was −0.6739. The “Hint2 avg_logFC” value was −0.4243, the “Hint2 pct.1” value was 0.425 and the “Hipk1 A6logFC” value was 0.2916. The “Hipk1 avg_logFC” value was 0.2916, the “Hipk1 pct.1” value was 0.337 and the “Hmgcr A6logFC” value was 0.4167. For the same compound, the “Hmgcr avg_logFC” value was 0.4167, the “Hmgcr pct.1” value was 0.425 and the “Hmox1 avg_logFC” value was 1.348. The “Hnf4a avg_logFC” value was 0.8791, the “Hnrnpdl avg_logFC” value was 0.398 and the “Hnrnpdl pct.1” value was 0.406. The “Hnrnpu A6logFC” value was 0.3394, the “Hnrnpu avg_logFC” value was 0.3394 and the “Hnrnpu pct.1” value was 0.625. The “Hpd avg_logFC” value was −0.5182, the “Hpgd avg_logFC” value was −0.3878 and the “Hpgd pct.1” value was 0.115. The “Hpn A6logFC” value was −0.2686, the “Hpn avg_logFC” value was −0.2686 and the “Hpn pct.1” value was 0.406. The “Hpx avg_logFC” value was −0.3033, the “Hpx pct.1” value was 0.988 and the “Hsbp1 A6logFC” value was −0.2867. The “Hsd3b5 avg_logFC” value was −1.07, the “Hsd17b13 avg_logFC” value was 0.6808 and the “Hsp90ab1 avg_logFC” value was 0.3227. For the same compound, the “Hsp90ab1 pct.1” value was 0.916, the “Hspb8 avg_logFC” value was 0.6339 and the “Iah1 A6logFC” value was −0.293. The “Iah1 avg_logFC” value was −0.293, the “Iah1 pct.1” value was 0.446 and the “Ier5 avg_logFC” value was 0.289. The “Ier5 pct.1” value was 0.134, the “Ifitm3 avg_logFC” value was −0.4251 and the “Ifitm3 pct.1” value was 0.587. The “Igfbp2 avg_logFC” value was −0.299, the “Igfbp2 pct.1” value was 0.68 and the “Iigp1 avg_logFC” value was 0.7688. The “Il1b avg_logFC” value was 0.7429, the “Il1r1 avg_logFC” value was 1.245 and the “Il4ra avg_logFC” value was 0.2574. For the same compound, the “Il4ra pct.1” value was 0.248, the “Il6st avg_logFC” value was 0.3168 and the “Il6st pct.1” value was 0.411. The “Il13ra1 avg_logFC” value was 0.2785, the “Il13ra1 pct.1” value was 0.294 and the “Impad1 A6logFC” value was 0.3227. The “Impad1 avg_logFC” value was 0.3227, the “Impad1 pct.1” value was 0.391 and the “Insig2 avg_logFC” value was 0.67. For the same compound, the “Iqgap1 avg_logFC” value was 0.4554, the “Iqgap1 pct.1” value was 0.162 and the “Itgb2 avg_logFC” value was 0.2723. The “Itgb2 pct.1” value was 0.105, the “Itih2 avg_logFC” value was 0.5011 and the “Ivns1abp A6logFC” value was 0.3566. The “Jak1 avg_logFC” value was 0.6039, the “Jmjd1c avg_logFC” value was 0.6366 and the “Kctd3 avg_logFC” value was 0.2608. For the same compound, the “Kctd3 pct.1” value was 0.239, the “Kdelr2 A6logFC” value was 0.3977 and the “Kdelr2 avg_logFC” value was 0.3977. For the same compound, the “Kdelr2 pct.1” value was 0.484, the “Kdm5a A6logFC” value was 0.3514 and the “Kdm5a avg_logFC” value was 0.3514. The “Kdm5a pct.1” value was 0.308, the “Khk avg_logFC” value was −0.4915 and the “Khk pct.1” value was 0.702. The “Kif1b avg_logFC” value was 0.3718, the “Kif1b pct.1” value was 0.527 and the “Kif5b avg_logFC” value was 0.5012. For the same compound, the “Kif5b pct.1” value was 0.494, the “Kif21a A6logFC” value was 0.4042 and the “Klf3 A6logFC” value was 0.2674. The “Klf3 avg_logFC” value was 0.2674, the “Klf3 pct.1” value was 0.301 and the “Klf6 avg_logFC” value was 0.7324. The “Klf15 avg_logFC” value was −0.4518, the “Klf15 pct.1” value was 0.208 and the “Kmo avg_logFC” value was −0.3844. For the same compound, the “Kmo pct.1” value was 0.487, the “Krt8 avg_logFC” value was 1.196 and the “Krt18 avg_logFC” value was 1.258. For the same compound, the “Lactb2 avg_logFC” value was −0.5965, the “Laptm5 avg_logFC” value was 0.3382 and the “Laptm5 pct.1” value was 0.124. The “Lars2 avg_logFC” value was 1.392, the “Lcn2 avg_logFC” value was 0.4122 and the “Lcn2 pct.1” value was 0.301. The “Ldlr A6logFC” value was 0.282, the “Ldlr avg_logFC” value was 0.282 and the “Ldlr pct.1” value was 0.432. The “Lgals9 A6logFC” value was −0.27, the “Lgals9 avg_logFC” value was −0.27 and the “Lgals9 pct.1” value was 0.621. For the same compound, the “Lgmn avg_logFC” value was 0.4846, the “Lgmn pct.1” value was 0.246 and the “Lifr avg_logFC” value was −0.6262. For the same compound, the “Lipc A6logFC” value was −0.2548, the “Lipc avg_logFC” value was −0.2548 and the “Lipc pct.1” value was 0.401. The “Litaf avg_logFC” value was 0.3944, the “Litaf pct.1” value was 0.451 and the “Lmo4 avg_logFC” value was 0.3205. For the same compound, the “Lmo4 pct.1” value was 0.308, the “Lonp2 avg_logFC” value was −0.4674 and the “Lonp2 pct.1” value was 0.561. For the same compound, the “Lpgat1 avg_logFC” value was 0.5952, the “Lpin2 avg_logFC” value was 0.6867 and the “Lrg1 avg_logFC” value was 0.4908. The “Lrrc58 avg_logFC” value was 1.001, the “Lrrc59 avg_logFC” value was 0.3772 and the “Lrrc59 pct.1” value was 0.422. For the same compound, the “Lrrfip1 avg_logFC” value was 0.4459, the “Lrrfip1 pct.1” value was 0.37 and the “Lsmd1 A6logFC” value was −0.3131. The “Lyst avg_logFC” value was 0.4093, the “Lyst pct.1” value was 0.31 and the “Lyz2 avg_logFC” value was 0.7322. The “Maff avg_logFC” value was 0.3553, the “Maff pct.1” value was 0.224 and the “Magi3 A6logFC” value was 0.27. For the same compound, the “Magi3 avg_logFC” value was 0.27, the “Magi3 pct.1” value was 0.303 and the “Malat1 avg_logFC” value was 0.9206. The “Malat1 pct.1” value was 0.871, the “Man2a1 avg_logFC” value was 0.4971 and the “Map2k3 avg_logFC” value was 0.4347. For the same compound, the “Map2k3 pct.1” value was 0.427, the “Map3k2 A6logFC” value was 0.2518 and the “Map3k2 avg_logFC” value was 0.2518. For the same compound, the “Map3k2 pct.1” value was 0.265, the “Mapk6 A6logFC” value was 0.2568 and the “Mapk6 avg_logFC” value was 0.2568. The “Mapk6 pct.1” value was 0.303, the “Mapkapk2 A6logFC” value was 0.3138 and the “Mapkapk2 avg_logFC” value was 0.3138. For the same compound, the “Mapkapk2 pct.1” value was 0.396, the “Mat1a avg_logFC” value was 0.7908 and the “Mat2a avg_logFC” value was 0.4826. For the same compound, the “Mat2a pct.1” value was 0.487, the “Mbl1 avg_logFC” value was −0.713 and the “Mbnl1 avg_logFC” value was 0.4513. The “Mbnl1 pct.1” value was 0.492, the “Mcee A6logFC” value was −0.3199 and the “Mcl1 avg_logFC” value was 0.5709. The “Mcl1 pct.1” value was 0.573, the “Mcm10 avg_logFC” value was −0.4874 and the “Mdn1 avg_logFC” value was 0.318. The “Mdn1 pct.1” value was 0.251.

From US20230053540A1, “TREATMENT OF LIVER INJURY” (Massachusetts Institute of Technology, priority 2019, published 2023)
